Data taken from ChEMBL document CHEMBL1909046, “DrugMatrix in vitro pharmacology data”.

What was measured:
Adenosine receptor A2a = Adenosine receptor A2a (Homo sapiens, UniProt P29274); assay: DRUGMATRIX: Adenosine A2A radioligand binding (ligand: […]); assay type: cell membranes, HEK293, Membrane; conditions: hek293; Not Active = under 50% inhibition at 10 µM
[1] = target: Delta-type opioid receptor (Homo sapiens, UniProt P41143); assay type: cell membranes, HEK293, Membrane; conditions: hek293; further: in other assays of this panel Not Active means under 50% inhibition at 10 µM
[2] = target: T1, Neuropeptide Y receptor type 1 (Homo sapiens, UniProt P25929); assay type: cell membranes, Membrane; conditions: sk-n-mc; further: in other assays of this panel Not Active means under 50% inhibition at 10 µM
T1 sequence (P25929 whole entry): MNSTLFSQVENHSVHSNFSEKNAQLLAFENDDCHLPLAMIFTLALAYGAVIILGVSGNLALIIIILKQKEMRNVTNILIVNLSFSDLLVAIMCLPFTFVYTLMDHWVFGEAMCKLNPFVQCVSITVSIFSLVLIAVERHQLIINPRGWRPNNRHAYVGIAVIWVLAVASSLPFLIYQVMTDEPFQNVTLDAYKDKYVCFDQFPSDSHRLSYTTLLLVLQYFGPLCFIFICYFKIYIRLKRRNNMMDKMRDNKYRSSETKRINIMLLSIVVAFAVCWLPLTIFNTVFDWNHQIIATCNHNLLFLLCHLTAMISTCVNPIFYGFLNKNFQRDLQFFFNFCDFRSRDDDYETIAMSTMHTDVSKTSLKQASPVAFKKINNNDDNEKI

Acetylcholinesterase = Acetylcholinesterase (Homo sapiens, UniProt P22303); assay: DRUGMATRIX: Acetylcholinesterase enzyme inhibition (substrate: acetylthiocholine); assay type: cell-based, HEK293; conditions: hek293; Not Active = under 50% inhibition at 10 µM
Cytochrome P450 3A4 = Cytochrome P450 3A4 (Homo sapiens, UniProt P08684); conditions: bti-tn-5b1-4; further: in other assays of this panel Not Active means under 50% inhibition at 10 µM
[3] = target: T2, 3-hydroxy-3-methylglutaryl-coenzyme A reductase (Homo sapiens, UniProt P04035); set-up: species or system Escherichia coli;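 further: enzyme inhibition assay of HMG-CoA reductase using radiolabeled [14C]HMG-CoA as substrate; in other assays of this panel Not Active means under 50% inhibition at 10 µM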
T2 sequence (P04035 whole entry): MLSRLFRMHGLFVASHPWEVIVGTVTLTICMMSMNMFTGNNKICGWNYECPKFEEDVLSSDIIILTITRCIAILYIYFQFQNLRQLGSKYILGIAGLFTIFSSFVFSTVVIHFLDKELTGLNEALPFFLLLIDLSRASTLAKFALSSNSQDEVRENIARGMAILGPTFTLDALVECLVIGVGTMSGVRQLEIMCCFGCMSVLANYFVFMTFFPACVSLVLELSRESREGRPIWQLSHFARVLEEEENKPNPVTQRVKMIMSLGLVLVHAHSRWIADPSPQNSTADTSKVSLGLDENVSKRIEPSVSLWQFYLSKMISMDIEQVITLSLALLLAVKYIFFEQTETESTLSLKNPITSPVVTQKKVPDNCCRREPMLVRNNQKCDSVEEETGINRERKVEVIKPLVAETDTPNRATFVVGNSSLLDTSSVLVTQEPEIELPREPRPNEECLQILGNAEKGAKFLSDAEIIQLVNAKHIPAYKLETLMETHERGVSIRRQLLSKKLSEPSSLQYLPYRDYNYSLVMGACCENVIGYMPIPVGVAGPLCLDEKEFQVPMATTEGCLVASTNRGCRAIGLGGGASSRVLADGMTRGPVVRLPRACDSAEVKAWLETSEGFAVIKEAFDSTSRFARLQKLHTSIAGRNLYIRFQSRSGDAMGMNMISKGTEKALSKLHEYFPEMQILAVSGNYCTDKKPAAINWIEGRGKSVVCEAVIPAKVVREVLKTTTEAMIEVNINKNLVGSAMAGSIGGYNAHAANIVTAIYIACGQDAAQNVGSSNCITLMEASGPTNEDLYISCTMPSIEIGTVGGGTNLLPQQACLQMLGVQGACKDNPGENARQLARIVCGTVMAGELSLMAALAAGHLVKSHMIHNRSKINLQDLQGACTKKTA

Estrogen receptor beta = Estrogen receptor beta (Homo sapiens, UniProt Q92731); conditions: sf9; further: in other assays of this panel Not Active means under 50% inhibition at 10 µM
[4] = target: T3, Muscarinic acetylcholine receptor M2 (Homo sapiens, UniProt P08172); assay type: cell membranes, CHO-K1, Membrane; conditions: cho-k1; further: in other assays of this panel Not Active means under 50% inhibition at 10 µM
T3 sequence (P08172 whole entry): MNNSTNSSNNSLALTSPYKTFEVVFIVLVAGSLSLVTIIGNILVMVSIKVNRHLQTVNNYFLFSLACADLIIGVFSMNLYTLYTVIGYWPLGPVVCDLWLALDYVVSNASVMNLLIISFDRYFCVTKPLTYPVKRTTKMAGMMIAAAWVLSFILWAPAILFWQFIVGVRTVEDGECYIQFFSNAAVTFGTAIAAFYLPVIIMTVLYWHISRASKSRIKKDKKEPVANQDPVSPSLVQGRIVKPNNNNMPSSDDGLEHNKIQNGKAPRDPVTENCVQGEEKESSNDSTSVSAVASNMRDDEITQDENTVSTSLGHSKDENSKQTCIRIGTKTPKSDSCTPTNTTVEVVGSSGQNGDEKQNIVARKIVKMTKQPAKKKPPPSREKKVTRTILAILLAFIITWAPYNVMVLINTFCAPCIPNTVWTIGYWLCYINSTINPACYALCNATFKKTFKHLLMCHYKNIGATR

Neutrophil elastase = target: T4, Neutrophil elastase (Homo sapiens, UniProt P08246); assay type: tissue-based
T4 sequence (P08246 whole entry): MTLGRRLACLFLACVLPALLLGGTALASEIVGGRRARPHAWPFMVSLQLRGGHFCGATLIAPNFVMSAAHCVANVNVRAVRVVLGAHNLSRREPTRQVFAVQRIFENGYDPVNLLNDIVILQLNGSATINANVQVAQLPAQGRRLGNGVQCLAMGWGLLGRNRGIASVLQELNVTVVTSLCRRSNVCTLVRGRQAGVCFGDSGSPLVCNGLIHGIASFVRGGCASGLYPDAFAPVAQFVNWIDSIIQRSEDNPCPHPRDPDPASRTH

[5] = target: T5, 5-hydroxytryptamine receptor 1A (Rattus norvegicus, UniProt P19327); assay type: cell membranes, Membrane; conditions: cho-k1; further: in other assays of this panel Not Active means under 50% inhibition at 10 µM
T5 sequence (P19327 whole entry): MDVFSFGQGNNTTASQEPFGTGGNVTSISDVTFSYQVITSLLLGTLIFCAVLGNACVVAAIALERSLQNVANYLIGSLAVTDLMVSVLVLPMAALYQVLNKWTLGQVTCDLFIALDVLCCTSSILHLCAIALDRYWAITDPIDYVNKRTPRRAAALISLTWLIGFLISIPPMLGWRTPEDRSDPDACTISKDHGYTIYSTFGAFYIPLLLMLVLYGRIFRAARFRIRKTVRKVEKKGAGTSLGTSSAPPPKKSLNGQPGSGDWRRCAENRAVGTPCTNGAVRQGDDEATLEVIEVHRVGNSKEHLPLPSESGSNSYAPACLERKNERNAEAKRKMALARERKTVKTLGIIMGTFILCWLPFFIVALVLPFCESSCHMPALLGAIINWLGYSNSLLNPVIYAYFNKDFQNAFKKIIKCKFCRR

[6] = target: Mitogen-activated protein kinase 1 (Homo sapiens, UniProt P28482); assay: DRUGMATRIX: Protein Serine/Threonine Kinase, ERK2 enzyme inhibition (substrate: Myelin Basic Protein); set-up: species or system Escherichia coli; conditions: Not Active = under 50% inhibition at 10 µM
Mitogen-activated protein kinase 1, sequence (P28482 whole entry): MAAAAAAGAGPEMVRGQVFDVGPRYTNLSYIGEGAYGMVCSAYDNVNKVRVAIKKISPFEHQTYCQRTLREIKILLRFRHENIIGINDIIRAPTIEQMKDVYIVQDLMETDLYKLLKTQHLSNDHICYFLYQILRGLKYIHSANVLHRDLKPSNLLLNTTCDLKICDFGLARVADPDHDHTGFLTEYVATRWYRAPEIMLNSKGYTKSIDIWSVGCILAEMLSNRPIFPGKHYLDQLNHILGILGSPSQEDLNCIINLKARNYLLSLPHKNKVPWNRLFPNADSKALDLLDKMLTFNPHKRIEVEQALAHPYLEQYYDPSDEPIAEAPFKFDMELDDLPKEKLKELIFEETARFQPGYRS

Delta-type opioid receptor, sequence (P41143 whole entry): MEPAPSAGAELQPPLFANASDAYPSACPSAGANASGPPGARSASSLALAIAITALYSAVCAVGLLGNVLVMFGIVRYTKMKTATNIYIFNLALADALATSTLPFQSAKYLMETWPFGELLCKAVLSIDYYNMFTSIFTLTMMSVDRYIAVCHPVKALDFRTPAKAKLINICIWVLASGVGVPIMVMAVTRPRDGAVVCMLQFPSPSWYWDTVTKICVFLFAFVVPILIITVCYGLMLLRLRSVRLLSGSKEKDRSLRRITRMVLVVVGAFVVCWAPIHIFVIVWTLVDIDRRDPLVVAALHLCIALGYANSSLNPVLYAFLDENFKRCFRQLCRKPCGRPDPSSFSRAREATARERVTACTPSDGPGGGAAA
Adenosine receptor A2a, sequence (P29274 whole entry): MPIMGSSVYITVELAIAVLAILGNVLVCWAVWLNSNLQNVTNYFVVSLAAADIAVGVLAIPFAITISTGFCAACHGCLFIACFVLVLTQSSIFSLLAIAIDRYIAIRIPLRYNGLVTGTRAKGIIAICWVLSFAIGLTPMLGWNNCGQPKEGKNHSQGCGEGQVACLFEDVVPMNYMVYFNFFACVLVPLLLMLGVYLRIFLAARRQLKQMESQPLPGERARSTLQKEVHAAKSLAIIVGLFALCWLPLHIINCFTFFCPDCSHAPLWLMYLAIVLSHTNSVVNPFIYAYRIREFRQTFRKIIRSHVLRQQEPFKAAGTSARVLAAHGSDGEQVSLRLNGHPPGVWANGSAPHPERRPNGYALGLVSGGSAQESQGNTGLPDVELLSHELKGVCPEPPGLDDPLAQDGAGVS
Cytochrome P450 3A4, sequence (P08684 whole entry): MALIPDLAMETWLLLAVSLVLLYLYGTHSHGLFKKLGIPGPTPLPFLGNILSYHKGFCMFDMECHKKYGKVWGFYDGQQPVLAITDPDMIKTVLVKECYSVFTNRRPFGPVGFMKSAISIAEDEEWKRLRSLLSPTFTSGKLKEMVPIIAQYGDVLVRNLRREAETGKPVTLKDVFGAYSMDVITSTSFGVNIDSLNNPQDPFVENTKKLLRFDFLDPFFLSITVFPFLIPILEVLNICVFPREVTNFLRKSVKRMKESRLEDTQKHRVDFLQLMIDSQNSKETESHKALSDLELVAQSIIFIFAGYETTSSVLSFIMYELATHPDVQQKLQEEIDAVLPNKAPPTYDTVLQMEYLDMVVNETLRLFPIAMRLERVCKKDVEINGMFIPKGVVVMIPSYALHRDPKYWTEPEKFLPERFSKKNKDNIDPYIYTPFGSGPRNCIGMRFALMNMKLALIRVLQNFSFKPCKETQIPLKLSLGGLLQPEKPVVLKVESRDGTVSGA
Acetylcholinesterase, sequence (P22303 whole entry): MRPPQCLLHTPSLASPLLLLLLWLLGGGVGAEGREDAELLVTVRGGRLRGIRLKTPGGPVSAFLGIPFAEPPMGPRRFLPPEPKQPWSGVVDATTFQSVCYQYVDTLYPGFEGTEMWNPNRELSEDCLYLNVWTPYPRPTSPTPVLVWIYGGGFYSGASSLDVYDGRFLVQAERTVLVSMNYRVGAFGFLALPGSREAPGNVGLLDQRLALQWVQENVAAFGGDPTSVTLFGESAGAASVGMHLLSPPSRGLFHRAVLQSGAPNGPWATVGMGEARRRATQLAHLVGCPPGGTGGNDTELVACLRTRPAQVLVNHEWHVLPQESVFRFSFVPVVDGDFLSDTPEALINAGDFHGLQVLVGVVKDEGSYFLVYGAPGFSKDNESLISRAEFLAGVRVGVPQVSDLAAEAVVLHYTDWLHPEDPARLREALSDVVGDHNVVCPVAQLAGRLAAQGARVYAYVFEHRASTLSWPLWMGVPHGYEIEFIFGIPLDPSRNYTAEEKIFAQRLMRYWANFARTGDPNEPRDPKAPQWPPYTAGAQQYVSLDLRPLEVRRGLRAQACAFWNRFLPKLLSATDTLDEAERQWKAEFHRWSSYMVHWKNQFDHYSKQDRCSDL
Estrogen receptor beta, sequence (Q92731 whole entry): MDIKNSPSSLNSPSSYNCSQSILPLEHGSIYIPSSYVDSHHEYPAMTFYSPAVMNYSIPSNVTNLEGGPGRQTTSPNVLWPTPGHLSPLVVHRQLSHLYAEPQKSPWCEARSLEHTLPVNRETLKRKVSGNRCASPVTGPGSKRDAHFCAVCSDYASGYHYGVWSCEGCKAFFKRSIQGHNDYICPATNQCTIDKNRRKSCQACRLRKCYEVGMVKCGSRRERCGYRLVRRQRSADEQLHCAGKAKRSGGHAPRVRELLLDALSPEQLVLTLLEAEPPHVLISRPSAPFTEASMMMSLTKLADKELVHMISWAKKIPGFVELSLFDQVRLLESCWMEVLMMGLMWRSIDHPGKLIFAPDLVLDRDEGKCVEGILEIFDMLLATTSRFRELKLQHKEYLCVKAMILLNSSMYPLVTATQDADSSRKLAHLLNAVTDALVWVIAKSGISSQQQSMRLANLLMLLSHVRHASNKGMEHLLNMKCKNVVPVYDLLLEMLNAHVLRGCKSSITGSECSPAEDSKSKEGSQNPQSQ

CC(C)CC(N(C)C)C1(c2ccc(Cl)cc2)CCC1 (centres undefined) [SIBUTRAMINE]
Not Active: IC50 (Adenosine receptor A2a) | IC50 [1] | IC50 [2] | IC50 (Acetylcholinesterase) | IC50 (Cytochrome P450 3A4) | Ki (Cytochrome P450 3A4) | IC50 [3] | IC50 (Estrogen receptor beta) | IC50 [4] | IC50 (Neutrophil elastase) | IC50 [5] | IC50 [6]

Cc1onc(-c2ccccc2)c1-c1ccc(S(N)(=O)=O)cc1 [VALDECOXIB]
Not Active: IC50 (Adenosine receptor A2a) | IC50 [1] | IC50 [2] | IC50 (Acetylcholinesterase) | IC50 (Cytochrome P450 3A4) | Ki (Cytochrome P450 3A4) | IC50 [3] | IC50 (Estrogen receptor beta) | IC50 [4] | IC50 (Neutrophil elastase) | IC50 [5] | IC50 [6]

Cc1cccc(Nc2ccncc2S(=O)(=O)NC(=O)NC(C)C)c1 [TORSEMIDE]
Not Active: IC50 (Adenosine receptor A2a) | IC50 [1] | IC50 [2] | IC50 (Acetylcholinesterase) | IC50 (Cytochrome P450 3A4) | Ki (Cytochrome P450 3A4) | IC50 [3] | IC50 (Estrogen receptor beta) | IC50 [4] | IC50 (Neutrophil elastase) | IC50 [5] | IC50 [6]

CN1C(C(=O)Nc2ccccn2)=C(O)c2sccc2S1(=O)=O [TENOXICAM]
Not Active: IC50 (Adenosine receptor A2a) | IC50 [1] | IC50 [2] | IC50 (Acetylcholinesterase) | IC50 (Cytochrome P450 3A4) | Ki (Cytochrome P450 3A4) | IC50 [3] | IC50 (Estrogen receptor beta) | IC50 [4] | IC50 (Neutrophil elastase) | IC50 [5] | IC50 [6]

COc1cc(NS(=O)(=O)c2ccc(N)cc2)nc(OC)n1 [SULFADIMETHOXINE]
Not Active: IC50 (Adenosine receptor A2a) | IC50 [1] | IC50 [2] | IC50 (Acetylcholinesterase) | IC50 (Cytochrome P450 3A4) | Ki (Cytochrome P450 3A4) | IC50 [3] | IC50 (Estrogen receptor beta) | IC50 [4] | IC50 (Neutrophil elastase) | IC50 [5] | IC50 [6]

CC(=O)N[C@@H]1[C@H](Oc2c3cc4cc2Oc2ccc(cc2Cl)[C@@H](O[C@@H]2O[C@@H](CO)[C@@H](O)[C@H](O)[C@@H]2NC(C)=O)[C@@H]2NC(=O)[C@H](NC(=O)[C@@H]4NC(=O)[C@H]4NC(=O)[C@@H](Cc5ccc(c(Cl)c5)O3)NC(=O)[C@H](N)c3ccc(O)c(c3)Oc3cc(O)cc4c3)c3ccc(O)c(c3)-c3c(O[C@H]4O[C@H](CO)[C@@H](O)[C@@H](O)[C@@H]4O)cc(O)cc3[C@@H](C(=O)O)NC2=O)O[C@@H](CO)[C@@H](O)[C@@H]1O
Not Active: IC50 (Adenosine receptor A2a) | IC50 [1] | IC50 [2] | IC50 (Acetylcholinesterase) | IC50 (Cytochrome P450 3A4) | Ki (Cytochrome P450 3A4) | IC50 [3] | IC50 (Estrogen receptor beta) | IC50 [4] | IC50 (Neutrophil elastase) | IC50 [5] | IC50 [6]

O=C1CCC(N2C(=O)c3ccccc3C2=O)C(=O)N1 (centres undefined) [THALIDOMIDE]
Not Active: IC50 (Adenosine receptor A2a) | IC50 [1] | IC50 [2] | IC50 (Acetylcholinesterase) | IC50 (Cytochrome P450 3A4) | Ki (Cytochrome P450 3A4) | IC50 [3] | IC50 (Estrogen receptor beta) | IC50 [4] | IC50 (Neutrophil elastase) | IC50 [5] | IC50 [6]

CC[C@]1(O)C[C@@H]2CN(CCc3c([nH]c4ccccc34)[C@@](C(=O)OC)(c3cc4c(cc3OC)N(C)[C@H]3[C@@](O)(C(=O)OC)[C@H](OC(C)=O)[C@]5(CC)C=CCN6CC[C@]43[C@@H]65)C2)C1 [VINBLASTINE]
Not Active: IC50 (Adenosine receptor A2a) | IC50 [1] | IC50 [2] | IC50 (Acetylcholinesterase) | IC50 (Cytochrome P450 3A4) | Ki (Cytochrome P450 3A4) | IC50 [3] | IC50 (Estrogen receptor beta) | IC50 [4] | IC50 (Neutrophil elastase) | IC50 [5] | IC50 [6]

CC1=C(CC(=O)O)c2cc(F)ccc2/C1=C\c1ccc([S+](C)[O-])cc1 (centres undefined)
Not Active: IC50 (Adenosine receptor A2a) | IC50 [1] | IC50 [2] | IC50 (Acetylcholinesterase) | IC50 (Cytochrome P450 3A4) | Ki (Cytochrome P450 3A4) | IC50 [3] | IC50 (Estrogen receptor beta) | IC50 [4] | IC50 (Neutrophil elastase) | IC50 [5] | IC50 [6]

CC(C)C[C@H](NC(=O)[C@@H](O)[C@H](N)Cc1ccccc1)C(=O)O [UBENIMEX]
Not Active: IC50 (Adenosine receptor A2a) | IC50 [1] | IC50 [2] | IC50 (Acetylcholinesterase) | IC50 (Cytochrome P450 3A4) | Ki (Cytochrome P450 3A4) | IC50 [3] | IC50 (Estrogen receptor beta) | IC50 [4] | IC50 (Neutrophil elastase) | IC50 [5] | IC50 [6]

COCCCOc1ccnc(C[S+]([O-])c2nc3ccccc3[nH]2)c1C (centres undefined) [RABEPRAZOLE]
Not Active: IC50 (Adenosine receptor A2a) | IC50 [1] | IC50 [2] | IC50 (Acetylcholinesterase) | IC50 (Cytochrome P450 3A4) | Ki (Cytochrome P450 3A4) | IC50 [3] | IC50 (Estrogen receptor beta) | IC50 [4] | IC50 (Neutrophil elastase) | IC50 [5] | IC50 [6]

N[C@H](CSC(=S)NCc1ccccc1)C(=O)O
Not Active: IC50 (Adenosine receptor A2a) | IC50 [1] | IC50 [2] | IC50 (Acetylcholinesterase) | IC50 (Cytochrome P450 3A4) | Ki (Cytochrome P450 3A4) | IC50 [3] | IC50 (Estrogen receptor beta) | IC50 [4] | IC50 (Neutrophil elastase) | IC50 [5] | IC50 [6]
